Common to all, as to assay type: biochemical
In one assay the target is T1, recombinant human VAP-1 (Homo sapiens, UniProt Q16853).
T1 construct: purchased R&D systems
T1 sequence (Q16853 1-763): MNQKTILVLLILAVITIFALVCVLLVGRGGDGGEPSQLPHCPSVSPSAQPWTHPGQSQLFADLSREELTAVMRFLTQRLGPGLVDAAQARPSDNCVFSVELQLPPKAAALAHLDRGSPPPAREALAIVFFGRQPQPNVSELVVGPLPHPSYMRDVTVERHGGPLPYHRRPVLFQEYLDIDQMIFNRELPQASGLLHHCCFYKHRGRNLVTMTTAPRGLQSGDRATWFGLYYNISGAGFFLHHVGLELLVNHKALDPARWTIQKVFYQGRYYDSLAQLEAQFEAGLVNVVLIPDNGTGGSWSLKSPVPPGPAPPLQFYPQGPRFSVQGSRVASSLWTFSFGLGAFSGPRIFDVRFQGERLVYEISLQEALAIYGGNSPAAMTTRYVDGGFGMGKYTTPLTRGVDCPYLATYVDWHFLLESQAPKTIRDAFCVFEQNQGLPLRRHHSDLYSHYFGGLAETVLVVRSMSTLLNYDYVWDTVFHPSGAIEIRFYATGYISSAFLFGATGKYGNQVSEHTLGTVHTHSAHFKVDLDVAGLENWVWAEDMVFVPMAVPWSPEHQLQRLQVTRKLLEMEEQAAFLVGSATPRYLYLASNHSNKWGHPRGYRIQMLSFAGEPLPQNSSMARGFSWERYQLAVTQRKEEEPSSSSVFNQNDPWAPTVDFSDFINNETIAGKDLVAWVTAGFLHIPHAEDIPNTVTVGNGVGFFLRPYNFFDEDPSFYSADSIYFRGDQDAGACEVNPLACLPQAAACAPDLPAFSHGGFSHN
Put plainly: Activity evaluation on recombinant human VAP-1 (Amplex Red/HRP-coupled hydrogen peroxide assay, benzylamine substrate). The following applies: read-out: Inhibitory Activity (IC50, nM) human VAP-1. The procedure, abridged:
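Recombinant human VAP-1 in 50 mM sodium phosphate pH 7.4 preincubated 30 min at 37 °C with compound (8-point 1:3 series, <1% DMSO), then 1 mM benzylamine, 200 uM Amplex Red, 1 U/mL HRP added. H2O2-derived resorufin fluorescence (ex 544/em 590) followed 1–2 h; IC50 from four-parameter fit of rate inhibition.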

Assay [1] has as its target T2, recombinant human MAO-A (monoamine oxidase-A) (Homo sapiens, UniProt P21397).
T2 construct: purchased Sigma-Aldrich
T2 sequence (P21397 1-527): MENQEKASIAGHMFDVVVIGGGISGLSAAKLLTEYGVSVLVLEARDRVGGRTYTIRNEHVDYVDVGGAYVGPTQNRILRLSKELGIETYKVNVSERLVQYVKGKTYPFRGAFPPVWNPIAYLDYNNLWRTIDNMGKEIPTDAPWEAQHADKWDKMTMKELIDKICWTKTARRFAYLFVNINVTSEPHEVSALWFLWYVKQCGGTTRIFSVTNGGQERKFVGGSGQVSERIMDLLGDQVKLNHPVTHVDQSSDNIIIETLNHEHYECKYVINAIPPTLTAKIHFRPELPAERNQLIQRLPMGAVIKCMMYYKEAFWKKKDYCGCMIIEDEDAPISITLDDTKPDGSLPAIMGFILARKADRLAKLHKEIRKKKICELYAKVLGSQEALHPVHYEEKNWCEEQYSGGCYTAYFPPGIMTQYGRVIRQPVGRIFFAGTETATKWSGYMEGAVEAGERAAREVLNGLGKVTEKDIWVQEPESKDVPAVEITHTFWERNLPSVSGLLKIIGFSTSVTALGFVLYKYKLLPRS
Put plainly: Activity evaluation on recombinant human MAO-A (Amplex Red/HRP-coupled assay, 0.5 mM tyramine substrate). The following applies: read-out: Inhibitory Activity (IC50, nM) MAO-A. The gist of the method: (§1)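 Enzyme activity was measured as fluorescence rate (ex 544, em 590 nm) from resorufin formed by HRP-coupled H2O2 oxidation of 200 uM Amplex Red. Compounds were first incubated 30 min at 37 °C with enzyme at pH 7.4; substrates were 0.5 mM tyramine (MAO-A), 1 mM benzylamine (MAO-B) and 1 mM putrescine (DAO).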

Assay [2] deals with T3, recombinant human MAO-B (monoamine oxidase-B) (Homo sapiens, UniProt P27338).
T3 construct: purchased Sigma-Aldrich
T3 sequence (P27338 1-520): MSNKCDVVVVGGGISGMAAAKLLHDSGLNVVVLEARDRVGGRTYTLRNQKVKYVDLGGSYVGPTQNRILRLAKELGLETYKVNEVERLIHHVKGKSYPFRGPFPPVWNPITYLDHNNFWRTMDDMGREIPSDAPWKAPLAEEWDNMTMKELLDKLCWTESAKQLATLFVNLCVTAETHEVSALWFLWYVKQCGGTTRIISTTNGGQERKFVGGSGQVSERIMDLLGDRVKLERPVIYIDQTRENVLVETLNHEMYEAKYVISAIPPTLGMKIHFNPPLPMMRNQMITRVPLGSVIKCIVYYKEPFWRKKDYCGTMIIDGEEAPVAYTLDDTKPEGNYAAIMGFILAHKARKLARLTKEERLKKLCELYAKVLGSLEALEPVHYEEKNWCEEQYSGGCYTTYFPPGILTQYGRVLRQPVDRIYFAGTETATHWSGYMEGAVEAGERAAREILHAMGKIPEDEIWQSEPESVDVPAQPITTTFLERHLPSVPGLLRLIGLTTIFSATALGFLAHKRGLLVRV
Put plainly: Activity evaluation on recombinant human MAO-B (Amplex Red/HRP-coupled assay, 1 mM benzylamine substrate). The conditions noted are these: read-out: Inhibitory Activity (IC50, nM) MAO-B. The procedure, abridged:
as §1

The target of assay [3] is T4, recombinant human DAO (diamine oxidase) (Homo sapiens, UniProt P19801).
T4 construct: purchased R&D systems
T4 sequence (P19801 20-751): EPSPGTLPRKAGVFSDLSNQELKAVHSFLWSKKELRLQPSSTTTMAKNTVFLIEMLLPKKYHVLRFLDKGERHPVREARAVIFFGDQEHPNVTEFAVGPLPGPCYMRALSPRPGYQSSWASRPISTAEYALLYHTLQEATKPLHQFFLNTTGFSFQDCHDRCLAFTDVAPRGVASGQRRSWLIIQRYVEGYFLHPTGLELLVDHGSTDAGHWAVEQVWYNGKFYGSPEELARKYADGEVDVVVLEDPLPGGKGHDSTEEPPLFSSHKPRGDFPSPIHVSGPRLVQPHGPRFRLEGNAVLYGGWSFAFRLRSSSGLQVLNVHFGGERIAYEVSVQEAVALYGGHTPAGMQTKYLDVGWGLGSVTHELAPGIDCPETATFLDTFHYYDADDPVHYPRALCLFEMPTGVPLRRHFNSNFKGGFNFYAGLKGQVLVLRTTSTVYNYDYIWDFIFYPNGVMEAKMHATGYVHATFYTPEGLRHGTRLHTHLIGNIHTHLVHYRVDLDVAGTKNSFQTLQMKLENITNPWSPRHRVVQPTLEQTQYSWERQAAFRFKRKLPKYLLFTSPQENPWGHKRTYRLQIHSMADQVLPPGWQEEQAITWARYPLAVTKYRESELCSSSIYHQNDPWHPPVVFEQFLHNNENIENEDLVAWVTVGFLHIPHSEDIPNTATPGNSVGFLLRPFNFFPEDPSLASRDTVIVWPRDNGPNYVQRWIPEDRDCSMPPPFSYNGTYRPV
Kind of assay: Activity evaluation on recombinant human DAO (Amplex Red/HRP-coupled assay, 1 mM putrescine substrate). The following applies: read-out: Inhibitory Activity (IC50, nM) DAO. The procedure, abridged: as §1

[4] abbreviates: recombinant human VAP-1, 30 min preincubation at 37° C., 1 mM benzylamine.
Where [5] appears, read: recombinant human VAP-1, benzylamine substrate.

Where a name gives a salt, the structure may show the parent alone. Read-outs that look alike come from different tables or passages of the source. Where only a bound is given, the exact number is not on record here.

One may read the IC50 as the concentration needed to halve the response being measured.

As for `COCCNc1ncc(-c2ccc(Cn3cnn(CC(CN)=C(F)F)c3=O)s2)cn1` [Example 118, 2-[2-(aminomethyl)-3,3-difluoro-allyl]-4-[[5-[2-(2-methoxyethylamino)pyrimidin-5-yl]-2-thienyl]methyl]-1,2,4-triazol-3-one Trifluoroacetate], the IC50 is 3.5 nM at recombinant human VAP-1 (setting [4]), more than 100000 nM in assay [1] (0.5 mM tyramine), more than 100000 nM in assay [2] (1 mM benzylamine) and 40000 nM in assay [3] (1 mM putrescine).

Take `NCC(Cn1ncn(Cc2ccc(-c3cc(F)c4c(c3)CC(=O)N4)s2)c1=O)=C(F)F` [Example 130, 5-[5-[[1-[2-(aminomethyl)-3,3-difluoro-allyl]-5-oxo-1,2,4-triazol-4-yl]methyl]-2-thienyl]-7-fluoro-indolin-2-one Trifluoroacetate]: the IC50 at recombinant human VAP-1 (setting [4]) is 0.7 nM; in assay [1] (0.5 mM tyramine) it was more than 100000 nM; in assay [2] (1 mM benzylamine), more than 100000 nM; in assay [3] (1 mM putrescine) it was more than 100000 nM.

For the compound `NCC(Cn1ncn(Cc2cc(Br)cs2)c1=O)=C(F)F` [Example 98, 2-[2-(aminomethyl)-3,3-difluoro-allyl]-4-[(4-bromo-2-thienyl)methyl]-1,2,4-triazol-3-one Trifluoroacetate], the half-maximal inhibitory concentration (IC50) on recombinant human VAP-1 (setting [4]) is 23 nM; in assay [1] (0.5 mM tyramine) it was more than 100000 nM; in assay [2] (1 mM benzylamine), 13900 nM; in assay [3] (1 mM putrescine), 18600 nM.

`NCC(Cn1ncn(Cc2cc3cc(-c4ccc5c(c4)OCO5)ccc3s2)c1=O)=C(F)F` [Example 209, 2-[2-(aminomethyl)-3,3-difluoro-allyl]-4-[[5-(1,3-benzodioxol-5-yl)benzothiophen-2-yl]methyl]-1,2,4-triazol-3-one Trifluoroacetate]: the 50% inhibitory concentration (IC50) is 4.3 nM on recombinant human VAP-1 (setting [5]), more than 100000 nM in assay [1] (0.5 mM tyramine substrate), 5180 nM in assay [2] (1 mM benzylamine substrate) and 93700 nM in assay [3] (1 mM putrescine substrate).

For the compound `Cc1cc(-c2ccc3c(c2)OCO3)sc1Cn1cnn(CC(CN)=C(F)F)c1=O` [Example 158, 2-[2-(aminomethyl)-3,3-difluoro-allyl]-4-[[5-(1,3-benzodioxol-5-yl)-3-methyl-2-thienyl]methyl]-1,2,4-triazol-3-one Trifluoroacetate], the half-inhibitory concentration (IC50) at recombinant human VAP-1 (setting [4]) is 7 nM; in assay [1] (0.5 mM tyramine), more than 100000 nM; in assay [2] (1 mM benzylamine) it was 3800 nM; in assay [3] (1 mM putrescine), more than 100000 nM.

Take `NCC(Cn1ncn(CCc2ccc(-c3ccc(C(F)(F)F)nc3)s2)c1=O)=C(F)F` [Example 175, 2-[2-(aminomethyl)-3,3-difluoro-allyl]-4-[2-[5-[6-(trifluoromethyl)-3-pyridyl]-2-thienyl]ethyl]-1,2,4-triazol-3-one Trifluoroacetate]: the IC50 at recombinant human VAP-1 (setting [4]) is 0.4 nM; in assay [1] (0.5 mM tyramine) it was more than 100000 nM; in assay [2] (1 mM benzylamine) it was 14000 nM; in assay [3] (1 mM putrescine) it was 250 nM.

For `Cc1cc(-c2cccc(S(C)(=O)=O)c2)cnc1-n1cnn(CC(CN)=C(F)F)c1=O` [Example 234, 2-[2-(aminomethyl)-3,3-difluoro-allyl]-4-[3-methyl-5-(3-methylsulfonylphenyl)-2-pyridyl]-1,2,4-triazol-3-one Trifluoroacetate], the IC50 on recombinant human VAP-1 (setting [5]) is 0.4 nM; in assay [1] (0.5 mM tyramine substrate), more than 100000 nM; in assay [2] (1 mM benzylamine substrate), 1800 nM; in assay [3] (1 mM putrescine substrate), 7500 nM.

Take `CCn1cc(-c2ccc(Cn3cnn(CC(CN)=C(F)F)c3=O)cc2)ccc1=O` [Example 270, 5-[4-[[1-[2-(aminomethyl)-3,3-difluoro-allyl]-5-oxo-1,2,4-triazol-4-yl]methyl]phenyl]-1-ethyl-pyridin-2-one Trifluoroacetate]: the half-inhibitory concentration (IC50) is 0.6 nM on recombinant human VAP-1 (setting [5]), more than 100000 nM in assay [1] (0.5 mM tyramine substrate), more than 100000 nM in assay [2] (1 mM benzylamine substrate) and more than 100000 nM in assay [3] (1 mM putrescine substrate).

Consider `Cc1cc(-c2cccc(-n3cnn(CC(CN)=C(F)F)c3=O)c2)cc2c1NC(=O)CC2` [Example 22, 6-[3-[1-[2-(aminomethyl)-3,3-difluoro-allyl]-5-oxo-1,2,4-triazol-4-yl]phenyl]-8-methyl-3,4-dihydro-1H-quinolin-2-one Trifluoroacetate], for which the half-maximal inhibitory concentration (IC50) was 0.8 nM at recombinant human VAP-1 (setting [4]), more than 100000 nM in assay [1] (0.5 mM tyramine), more than 100000 nM in assay [2] (1 mM benzylamine) and more than 10000 nM in assay [3] (1 mM putrescine).

On to `CN(C)S(=O)(=O)c1cccc(-c2ccc(Cn3cnn(CC(CN)=C(F)F)c3=O)s2)c1` [Example 103, 3-[5-[[1-[2-(aminomethyl)-3,3-difluoro-allyl]-5-oxo-1,2,4-triazol-4-yl]methyl]-2-thienyl]-N,N-dimethyl-benzenesulfonamide trifluoroacetate], for which the IC50 on recombinant human VAP-1 (setting [4]) was 0.9 nM; in assay [1] (0.5 mM tyramine), more than 100000 nM; in assay [2] (1 mM benzylamine) it was 4200 nM; in assay [3] (1 mM putrescine) it was 22000 nM.

For the compound `CN(C)c1ccc(-c2cnc(-n3cnn(CC(CN)=C(F)F)c3=O)cn2)cn1` [Example 92, 2-[2-(aminomethyl)-3,3-difluoro-allyl]-4-[5-[6-(dimethylamino)-3-pyridyl]pyrazin-2-yl]-1,2,4-triazol-3-one Trifluoroacetate], the 50% inhibitory concentration (IC50) on recombinant human VAP-1 (setting [4]) is 0.2 nM; in assay [1] (0.5 mM tyramine) it was more than 100000 nM; in assay [2] (1 mM benzylamine), 6200 nM; in assay [3] (1 mM putrescine), 8 nM.

Source of the values: US11168073B2, “3,3-difluoroallylamines or salts thereof and pharmaceutical compositions comprising the same” (YUHAN CORPORATION, priority 2018, dated 2021).
